Numbers after ± are expanded uncertainties.
Assay: activity coefficient (dimensionless); of the first substance listed, at infinite dilution; xn = mol fraction of the nth substance listed
Conditions: 101.33 kPa, Liquid, Chromatography, x1 = 0

Compound | activity coefficient (298.15 K) | activity coefficient (308.15 K) | activity coefficient (318.15 K) | activity coefficient (328.15 K) | activity coefficient (338.15 K) | activity coefficient (348.15 K) | activity coefficient (358.15 K) | activity coefficient (368.15 K)
CCOCC [diethyl ether] + C[N+]1(CCCO)CCOCC1.N#C[N-]C#N | 59.3 ± 4.1 | 51.3 ± 3.5 | 44.7 ± 3.1 | 39.2 ± 2.7 | 35 ± 2.4 |  |  | 
C1=CCCCC1 [cyclohexene] + C[N+]1(CCCO)CCOCC1.N#C[N-]C#N | 121 ± 8 | 97 ± 6.7 | 79.1 ± 5.4 | 65.3 ± 4.5 |  |  |  | 
CC(C)O [propan-2-ol] + C[n+]1ccn(CCCO)c1.N#CN=C=[N-] |  |  | 1.92 ± 0.13 | 1.92 ± 0.13 | 1.92 ± 0.13 | 1.91 ± 0.13 | 1.91 ± 0.13 | 1.92 ± 0.13
COC(C)(C)C [2-methoxy-2-methylpropane] + C[N+]1(CCCO)CCOCC1.N#C[N-]C#N |  | 55.8 ± 3.8 | 52.4 ± 3.6 | 49.7 ± 3.4 | 47.1 ± 3.2 | 45 ± 3.1 | 42.9 ± 2.9 | 41.3 ± 2.8
CCCC=O [butanal] + C[n+]1ccn(CCCO)c1.N#CN=C=[N-] |  |  | 2.68 ± 0.18 | 2.92 ± 0.2 | 3.19 ± 0.22 | 3.43 ± 0.23 | 3.72 ± 0.25 | 3.95 ± 0.27
CCOCC [diethyl ether] + C[n+]1ccn(CCCO)c1.N#CN=C=[N-] |  |  | 20.3 ± 1.4 | 20.3 ± 1.4 | 20.5 ± 1.4 | 20.6 ± 1.4 | 20.7 ± 1.4 | 20.8 ± 1.4
C1CCCCCC1 [cycloheptane] + C[n+]1ccn(CCCO)c1.N#CN=C=[N-] | 152 ± 10 | 139 ± 10 | 128 ± 9 | 119 ± 8 | 111 ± 8 | 104 ± 7 | 97.8 ± 6.7 | 
C#CCCCCCC [1-octyne] + C[n+]1ccn(CCCO)c1.N#CN=C=[N-] | 60.1 ± 4.1 | 60.2 ± 4.1 | 59.8 ± 4.1 | 59.6 ± 4.1 | 59.6 ± 4.1 | 59.4 ± 4.1 | 59.6 ± 4.1 | 
CCC[N+](=O)[O-] [1-nitropropane] + C[n+]1ccn(CCCO)c1.N#CN=C=[N-] |  |  | 2.69 ± 0.18 | 2.79 ± 0.19 | 2.89 ± 0.2 | 2.97 ± 0.2 | 3.08 ± 0.21 | 3.17 ± 0.22
CCCc1ccccc1 [propylbenzene] + C[N+]1(CCCO)CCOCC1.N#C[N-]C#N |  |  | 54.1 ± 3.7 | 53.2 ± 3.6 | 52.4 ± 3.6 | 51.5 ± 3.5 | 51 ± 3.5 | 50.2 ± 3.4
CCC(=O)OC [methyl propanoate] + C[N+]1(CCCO)CCOCC1.N#C[N-]C#N |  |  | 8.18 ± 0.56 | 8.35 ± 0.57 | 8.51 ± 0.58 | 8.7 ± 0.59 | 8.81 ± 0.6 | 9.01 ± 0.61
CCC(=O)CC [pentan-3-one] + C[N+]1(CCCO)CCOCC1.N#C[N-]C#N |  |  | 8.09 ± 0.55 | 8.2 ± 0.56 | 8.38 ± 0.57 | 8.52 ± 0.58 | 8.61 ± 0.59 | 8.75 ± 0.6
c1ccsc1 [thiophene] + C[n+]1ccn(CCCO)c1.N#CN=C=[N-] |  |  | 2.44 ± 0.17 | 2.57 ± 0.17 | 2.69 ± 0.18 | 2.82 ± 0.19 | 2.95 ± 0.2 | 3.07 ± 0.21
CCc1ccccc1 [ethylbenzene] + C[N+]1(CCCO)CCOCC1.N#C[N-]C#N |  |  | 26.4 ± 1.8 | 26.3 ± 1.8 | 26.3 ± 1.8 | 26.2 ± 1.8 | 26.2 ± 1.8 | 26.2 ± 1.8
C=COC(C)=O [vinyl acetate] + C[N+]1(CCCO)CCOCC1.N#C[N-]C#N |  |  | 6.62 ± 0.45 | 6.72 ± 0.46 | 6.81 ± 0.46 | 6.89 ± 0.47 | 6.99 ± 0.48 | 7.08 ± 0.48
CO [methanol] + C[n+]1ccn(CCCO)c1.N#CN=C=[N-] |  |  | 0.63 ± 0.04 | 0.64 ± 0.04 | 0.654 ± 0.045 | 0.66 ± 0.05 | 0.679 ± 0.046 | 0.69 ± 0.05
CCCCCCCCC [nonane] + C[N+]1(CCCO)CCOCC1.N#C[N-]C#N |  | 2260 ± 160 | 1870 ± 130 | 1570 ± 110 | 1340 ± 92 | 1160 ± 80 | 994 ± 69 | 867 ± 60
COC(C)=O [methyl ethanoate] + C[n+]1ccn(CCCO)c1.N#CN=C=[N-] |  |  | 3.07 ± 0.21 | 3.21 ± 0.22 | 3.35 ± 0.23 | 3.5 ± 0.24 | 3.64 ± 0.25 | 3.8 ± 0.26
C=CCCCCCC [oct-1-ene] + C[n+]1ccn(CCCO)c1.N#CN=C=[N-] | 358 ± 25 | 331 ± 23 | 305 ± 21 | 282 ± 19 | 263 ± 18 | 245 ± 17 | 234 ± 16 | 
CCOC(C)=O [ethyl acetate] + C[N+]1(CCCO)CCOCC1.N#C[N-]C#N |  |  | 9.71 ± 0.66 | 9.78 ± 0.67 | 9.83 ± 0.67 | 9.91 ± 0.68 | 10 ± 0.7 | 10.1 ± 0.7

Source: the NIST ThermoML archive (doi:10.1016/j.jct.2017.11.017)
